Reference: patent US20110028447A1, “INDAZOLE DERIVATIVES” (Pfizer Inc., priority 2008, published 2011)
pEC50, pKi: −log10 of the molar value. Where two headings read alike, the source gives them in different places.

Columns and labels:
[1] = target: T1, human CB1 receptor (Homo sapiens, UniProt P21554); assay: Human CB1 receptor binding, [3H] CP-55,940 displacement on HEK cell membranes; set-up: expressed in transfected cells; host or cells: HEK cells, doxycycline-induced; membrane preparation
Outline: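 Radioligand displacement: [3H] CP-55,940 at […] final, 1 μg membrane protein per well from HEK cells with tetracycline-inducible human CB1, 60 min at room temperature, pH 7.4 Tris/NaCl/MgCl2/EGTA/BSA buffer. 50 μM WIN-55,212-2 set nonspecific binding; bound label filtered, counted, and fitted for EC50 and Ki values.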

[2] = target: T1, human CB1 receptor; assay: [35S] GTPγS binding on membranes of CHO cells expressing the human CB1 receptor (agonism); type: biochemical; set-up: expressed in transfected cells; membrane preparation
Outline: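 Membranes from human CB1-expressing CHO cells (5 μg/well) incubated with test compound and [35S]GTPγS in 50 mM Tris pH 7.4, 100 mM NaCl, 3 mM MgCl2, 0.2 mM EGTA, 0.04% BSA for 45 min at 37 °C. Bound label collected by filtration, scintillation counted; EC50 from curve fits.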

[3] = human CB1, CHO cell membranes, read-out: GTPγS EC50
[4] = GTPγS EC50, human CB1, CHO cell membranes

T1 sequence (P21554 whole entry): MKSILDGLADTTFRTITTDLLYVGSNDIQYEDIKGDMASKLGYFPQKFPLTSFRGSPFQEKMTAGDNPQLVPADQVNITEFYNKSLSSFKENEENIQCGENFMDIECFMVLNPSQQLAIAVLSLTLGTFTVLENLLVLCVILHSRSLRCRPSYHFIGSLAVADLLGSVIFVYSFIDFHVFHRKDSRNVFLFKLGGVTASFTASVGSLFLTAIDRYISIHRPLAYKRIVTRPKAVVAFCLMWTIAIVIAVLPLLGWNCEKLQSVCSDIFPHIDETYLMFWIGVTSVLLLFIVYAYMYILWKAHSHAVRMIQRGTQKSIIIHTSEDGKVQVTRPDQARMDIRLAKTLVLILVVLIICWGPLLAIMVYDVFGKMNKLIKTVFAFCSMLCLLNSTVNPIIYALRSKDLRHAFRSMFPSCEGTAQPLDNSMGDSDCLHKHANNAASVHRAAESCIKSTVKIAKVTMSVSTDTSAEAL

| SMILES | pKi ([1]; read-out: CB1 Ki) | pEC50 [2, 3] | pKi ([1]; CB1 Ki) | pEC50 [2, 4] |
| --- | --- | --- | --- | --- |
| CC(C)(C)[C@H](NC(=O)c1nn(Cc2ccc(F)cc2)c2c(F)c(F)ccc12)C(=O)NCc1nnc(C(N)=O)o1 [Example 328] | 9.15 | 8.77 | – | – |
| Cc1nnc(CNC(=O)[C@@H](NC(=O)c2nn(Cc3ccc(F)cc3)c3c(F)c(F)ccc23)C(C)(C)C)o1 [Example 329] | – | – | 8.53 | 8.10 |
| CC(C)(C)[C@H](NC(=O)c1nn(Cc2ccc(F)cc2)c2ccccc12)C(=O)N1CC(F)(F)C1 [Example 330] | – | – | 9.70 | 9.39 |
| CC(C)(C)[C@H](NC(=O)c1nn(Cc2ccc(F)cc2)c2ccccc12)C(=O)N1CCC(F)(F)C1 [Example 331] | – | – | 8.66 | 8.00 |
| CC(C)(C)[C@H](NC(=O)c1nn(Cc2ccc(F)cc2)c2ccccc12)C(=O)N1CCC(F)(F)CC1 [Example 332] | – | – | 7.82 | 7.56 |
| CC(C)(C)[C@H](NC(=O)c1nn(Cc2ccc(F)cc2)c2ccccc12)C(=O)N1CCCC(F)(F)C1 [Example 333] | – | – | 8.83 | 8.43 |
| CC(C)(C)[C@H](NC(=O)c1nn(Cc2ccc(F)cc2)c2ccccc12)C(=O)N1CCC(F)C1 (stereo partly shown) [Example 334] | – | – | 8.76 | 8.03 |
| CC(C)(C)[C@H](NC(=O)c1nn(Cc2ccc(F)cc2)c2ccccc12)C(=O)N1CCC(C#N)CC1 [Example 335] | – | – | 8.49 | 7.83 |
| CC(C)(C)[C@H](NC(=O)c1nn(Cc2ccc(F)cc2)c2ccccc12)C(=O)N1CC(F)C1 [Example 336] | – | – | 9.96 | 9.28 |
| CC(C)(C)[C@H](NC(=O)c1nn(Cc2ccc(F)cc2)c2ccccc12)C(=O)N1CCC(F)(CO)CC1 [Example 337] | 8.46 | 7.68 | – | – |
| CC(C)(O)C1CCN(C(=O)[C@@H](NC(=O)c2nn(Cc3ccc(F)cc3)c3ccccc23)C(C)(C)C)CC1 [Example 338] | 8.46 | 7.60 | – | – |
| CC(C)(C)[C@H](NC(=O)c1nn(Cc2ccc(F)cc2)c2ccccc12)C(=O)NC1CCCOC1 (stereo partly shown) [Example 339] | – | – | 8.27 | 7.67 |
| CC(C)(C)[C@H](NC(=O)c1nn(Cc2ccc(F)cc2)c2ccccc12)C(=O)N1CCC(F)CC1 [Example 341] | – | – | 8.43 | 7.86 |
| CC(C)(C)[C@H](NC(=O)c1nn(Cc2ccc(F)cc2)c2ccccc12)C(=O)N1CC[C@H]1C(N)=O [Example 344] | – | – | 8.00 | 7.22 |
| CC(C)(C)[C@H](NC(=O)c1nn(Cc2ccc(F)cc2)c2ccccc12)C(=O)N1CC(CNS(=O)(=O)C2CC2)C1 [Example 345] | 9.21 | 8.77 | – | – |
| CC(C)(C)[C@H](NC(=O)c1nn(Cc2ccc(F)cc2)c2ccccc12)C(=O)N1CC(CNC(N)=O)C1 [Example 346] | 8.29 | 7.92 | – | – |
| CC(C)(C)[C@H](NC(=O)c1nn(Cc2ccc(F)cc2)c2c(F)cccc12)C(=O)NCCS(N)(=O)=O [Example 348] | – | – | 8.11 | 7.71 |
| CC(C)(C)[C@H](NC(=O)c1nn(Cc2ccc(C#N)cc2)c2c(F)cccc12)C(=O)N1CC(C(N)=O)C1 [Example 352] | – | – | 8.38 | 7.31 |
| CC(C)(C)[C@H](NC(=O)c1nn(Cc2ccc(C#N)cc2)c2ccccc12)C(=O)N[C@H]1C[C@H](O)C1 [Example 354] | – | – | 7.93 | < 6.30 |
| CC(C)(C)[C@H](NC(=O)c1nn(Cc2ccc(F)cc2)c2ccccc12)C(=O)NCCS(=O)(=O)N1CCOCC1 [Example 357] | 8.53 | 7.31 | – | – |
| CC(C)(C)[C@H](NC(=O)c1nn(Cc2ccc(C#N)cc2F)c2c(F)c(F)ccc12)C(N)=O [Example 358] | – | – | 8.31 | 8.13 |
| CC(C)(C)[C@H](NC(=O)c1nn(Cc2ccc(C#N)cc2F)c2c(F)c(F)ccc12)C(=O)NCc1nnc(C(N)=O)o1 [Example 365] | 7.92 | 7.46 | – | – |
| CC(C)(C)[C@H](NC(=O)c1nn(Cc2ccc(C#N)cc2F)c2c(F)cccc12)C(N)=O [Example 368] | – | – | 8.70 | 8.34 |
